Values quoted from earlier work, collected in US20050271754A1, “Composition for prevention or treatment of an alcohol hangover” (priority 2004, published 2005).

Tested on: acetaldehyde levels in the blood, liver and brain
Conditions: increases the oxidation cycle of ethanol

Question: With `N[C@@H](CS)C(=O)O` [L-cysteine] as the compound, how does the “acetaldehyde levels in the blood, liver and brain” value read?
Answer: Its value is “lowering acetaldehyde levels”.
